This is an account of results in a melting point compilation (Tetko et al.; mined from patent text by program, amines drawn as free bases though some values may be those of a salt).

`CCCNc1ncnc2c1ncn2Cc1ccc(OC)c(OC)c1`: the melting point was in the range of 117 to 120 °C.
The figure for `C#CC1(O)C(CO)OC(n2ccc(N)nc2=O)C1O` (stereo not given) is 233 to 235 °C; for `CC(=O)N=C(O)c1cc(C(O)=NCCOC(C)=O)c(C(=O)O)cc1C(=O)O` it is 176 to 178 °C.
The value for `COc1ccc2nc(Cl)cc(CC#N)c2c1` was 182 to 184 °C.
The figure for `CNCCc1cc(Br)cc(-c2sccc2C)c1N` is 68 to 70 °C; for `CCOc1cc2nc(CCl)nc(Cl)c2cc1OCC` it is 109 to 112 °C; for `O=C1OC(COc2ccc(Cl)cc2Cl)OC1c1ccccc1` (stereo not given) it is 105 to 107 °C.
The compound `COc1cc(OC)cc(N2CCN(C(=O)N(C)c3cc4ccccc4cc3OC)CC2)c1` returned a melting point of 83 to 85 °C.
The figure for `COC(=O)c1cc(C(=O)OC)cc(-c2cc(C(=O)OC)cc(C(=O)OC)c2)c1` is 214 to 215 °C.
`COc1ccc(C2(O)c3cc(NC(=O)CC(C)(C)C)c(C)c(C)c3OC2(C)C)c(OC)c1` (stereo not given) gave a melting point of 150 to 151 °C.
The value for `O=C1CCC(N2C(=O)c3cccc(CNC(=O)Nc4cccc(Cl)c4)c3C2=O)C(=O)N1` (stereo not given) was 193 to 195 °C.
The figure for `COc1ccc2c(c1O)C13CCN(C)C(C2)C1C=C(C)C(=O)C3` (stereo not given) is 183 to 185 °C; for `C#Cc1ccc(SC)cc1Cl` it is 46 to 50 °C.
The value for `C#Cc1cccc(C(=O)OCC)c1` was 36 to 38 °C; that for `Cc1cc(NCC(C)C)c(N)c2nnnn12` was 159 to 162 °C.
On to `CCOC(=O)N1CCOC(CN2C(=O)c3ccccc3C2=O)C1` (stereo not given), for which the melting point lay in the range of 113 to 115 °C.
The value for `CC(C)Cn1c(C(C)(C)O)nc2c(N)nc3ccccc3c21` was 214 to 217 °C.
The value for `O=C1C=CC(O)(c2ccc3ccccc3c2)C=C1` was 137 °C; that for `C[C@H](COc1ccc(C=C2SC(=S)N(CC(=O)O)C2=O)cc1OCc1ccccc1)c1ccccc1` was 148 °C.
The value for `C=CCNC(=O)Nc1ccccc1CCc1cc(C(C)(C)C)c(O)c(C(C)(C)C)c1` was 169 to 172 °C; that for `O=C(O)C1CCC2CCC(=O)N21` (stereo not given) was 145 to 148 °C.
On to `C=C(Br)c1cc(O)cc2nc(-c3ccc(O)cc3F)oc12`, for which the melting point is 235 to 237 °C.
The figure for `O=[N+]([O-])c1cnc(Cl)nc1` is 78 to 80 °C; for `COC(=O)CCc1cc2cc(Cl)ccc2n1S(=O)(=O)c1cccc(OC)c1` it is 106 to 109 °C; for `CCCOc1ccc(S(=O)(=O)N2CCN(CC(=O)OCC)CC2)cc1-c1nc2cc3nc[nH]c3cc2c(=O)[nH]1` it is 188 to 192 °C.
Take `CC(C)(CCl)C(=O)N(O)c1ccccc1`: the melting point fell in the range of 120 to 121 °C.
The value for `CC(=O)OCc1ccc(-c2[nH]c(-c3cccc4ccccc34)nc2C(=O)OC(C)(C)C)cc1` was 162 to 164 °C.
The value for `COC(=O)c1cc2c(C)ccc(C)c2n1OC(C)=O` was 87 to 88 °C; that for `O=C(NCCSCc1cccc(Cl)c1)c1c(C(F)(F)F)cccc1C(F)(F)F` was 93 to 94 °C.
As for `O=C(CC(=O)c1ccccc1O)c1cc(O)c(O)c([N+](=O)[O-])c1`, the melting point is 251 to 252 °C.
The value for `CCOC(=O)c1c(C)nc2c(cnn2CCOC)c1N` was 82 to 85 °C; that for `CCCc1cc2cc(OCC(=O)O)c(Cl)c(Cl)c2s1` was 165 to 166 °C; that for `Nc1cc(C(=O)NNC(=O)c2occ(-c3ccccc3)c2-c2ccccc2)ccc1O` was 268 to 270 °C.
`CCC12CCC(NC(=O)C=CC(=O)OC)C3Oc4c(O)ccc5c4C31CCN(CC1CC1)C2C5` (stereo not given) showed a melting point of 233 to 236 °C.
The value for `CC(=NOC(=O)N(C)C)C1=CCCN(C)C1` was 54 to 55 °C.
The figure for `CC(C)(CO)COc1ccc(-c2c(C(N)=O)oc3ccccc23)cc1C#N` is 199 to 201 °C; for `COc1cc(C2c3cc4c(cc3C(NC3=CC(=O)N(CCCCCC(=O)O)C3=O)C3COC(=O)C23)OCO4)cc(OC)c1O` (stereo not given) it is 150 to 152 °C; for `CCNc1nc(NCC)nc(-c2ccc(-c3ccccc3)cc2)n1` it is 183 to 184 °C.
`NS(=O)(=O)c1ccc(NN=C2C(=O)Nc3ccc(C(=O)NCc4cccnc4)cc32)cc1` registered a melting point of 211 to 215 °C.
The value for `COC(=O)c1c[nH]cc1-c1cccc(Cl)c1Cl` was 200 to 201 °C; that for `Cc1ccc(Cl)cc1NC(=O)c1cc([N+](=O)[O-])ccc1NC(=O)CF` was 210 to 212 °C; that for `C#Cc1ccc(CCNC(=O)c2cc(Cl)ccc2OC)cc1S(=O)(=O)NC(=S)NC` was 224 to 225 °C.
The value for `Cc1oc(-c2ccccc2)nc1COc1ccc(COc2ccc(OCc3ccccc3)cc2CC(=O)O)cc1` was 140 to 141 °C.
The figure for `FC(F)(F)c1cc(-c2ccccc2)nc(N2CCNCC2)n1` is 130 °C; for `CCOC(=O)C(Cl)(Cl)CCCCCCCCCCCCSc1ccc(NC(=O)c2ccc(Cl)cc2)cc1` it is 130 to 131 °C.
For the compound `Cc1nnc2n1-c1sc(C#CCCN3C(=O)c4cccc5cccc(c45)C3=O)cc1C(c1ccccc1Cl)=NC2`, the melting point fell in the range of 175 to 179 °C.
The figure for `CCOC(=O)c1ccc(-c2nc(N)sc2Cc2ccc(S(C)(=O)=O)cc2)cc1` is 206 to 207 °C.
The value for `C[C@@H]1CN(C(=O)[C@@](C)(O)C(F)(F)F)[C@@H](C)CN1S(=O)(=O)c1ccc(C#N)cc1` was 186 to 187 °C; that for `Oc1nc(-c2ccc3c(c2)CCO3)nc2ccccc12` was 289 to 294 °C.
The figure for `CC(C)CC1(Cn2cnc3ccccc32)Sc2[nH]c(=O)n(C)c(=O)c2C1Sc1cccs1` (stereo not given) is 198 °C.
`Cc1ccc(N2CN(C)CNC2=S)c(C)c1` yielded a melting point of 140 to 143 °C.
The value for `c1ccc(CCN2CCC(CCc3cc(-c4ccccc4)nc4ccccc34)CC2)cc1` was 80 °C; that for `CCOC(=O)ONC(=N)COc1cc(OCC(=N)NOC(=O)OCC)c2c(C)c(Cc3ccccc3)c(=O)oc2c1` was 87 to 92 °C.
The value for `CCN(C)c1nc2cc(Br)ccn2n1` was 109 to 111 °C.
In turn, `Nc1ccnc2c(NC(=O)c3c(Cl)cccc3Cl)cccc12` came in with a melting point of 265 to 275 °C.
The figure for `CC(C)C(=O)N[C@@H]1CCc2c(c3cc(-c4ccno4)ccc3n2Cc2cccc(F)c2)C1` is 238 to 241 °C.
The figure for `O=C1CCC2=C1C(Cc1ccccc1)(Cc1ccccc1)c1ccccc12` is 155 °C; for `COc1ccc(C(O)c2ccc3cc(OC)ccc3c2)c(F)c1` (stereo not given) it is 68 to 69 °C.
The figure for `CN1C(=O)C(=CC(=O)O)SC1=Nc1ccc(Cl)c(Cl)c1` is 225 to 226 °C.
For the compound `COc1ccc(-c2nnc3c4ccccc4c(Nc4ccc(NC(=O)c5ccc(N6CCOCC6)cc5)cc4)nn23)cc1`, the melting point worked out at 313 °C.
The figure for `N#Cc1cnc2cc(F)c(O)cc2c1Cl` is greater than 250 °C.
`CC(C)Cn1cc(F)c(NCc2ccccc2F)nc1=O` came in with a melting point of 118 to 119 °C.
`CCc1nc2c(N)nc3ccccc3c2n1CCOCCNC(=O)NC1CCCCC1` showed a melting point of 198 to 200 °C.
The value for `COC(=O)c1c(N)cccc1[N+](=O)[O-]` was 105 to 107 °C; that for `CN(Cc1cc(C(F)(F)F)cc(C(F)(F)F)c1)C(=O)c1cnc2ccccc2c1-c1ccccc1` was 96 to 97 °C.
Take `NCCCc1ccc(SCCC(c2ccccc2)(c2ccccc2)c2ccccc2)cc1`: the melting point is 73 to 75 °C.
The figure for `CCN(CC)CC1CCCCN1CCNC(=O)N1c2ccc(C)cc2C(=O)Nc2cccnc21` (stereo not given) is 148 to 150 °C; for `C(=C\c1ccoc1)/c1ccccc1` it is 96 °C.
The figure for `Clc1ccc(C2(Cl)c3ccc(Cl)cc3-c3ncncc32)cc1` (stereo not given) is 152 to 153 °C; for `O=Cc1cc(OCc2ccccc2)ccc1O` it is 94 to 96 °C; for `CSC1=CC2=CN(S)NN2C(SC)=N1` it is 250 to 252 °C.
`CCc1nc2c(C)cc(C)nc2n1Cc1ccc(C(=Cc2nnn[nH]2)c2ccccc2Cl)cc1` displayed a melting point of 28 °C.
The value for `CC(=O)Nc1cccc(C=O)c1C` was 160 °C; that for `CC(C)Oc1n[nH]cc1C(=O)NCc1ccc(Cl)cc1Cl` was 185 to 186 °C.
The value for `COc1ccc(-c2nsc(SN)n2)cc1` was 136 to 139 °C.
The figure for `CC1(C)C=C(c2ncccn2)c2cc(C#N)ccc2O1` is 108 to 110 °C.
`O=c1c(N2CCNCC2)nccn1CCOc1cc(F)cc(F)c1` had a melting point of 119 to 121 °C.
The value for `Cn1nc(CO)cc1-c1ccccc1` was 95 to 99 °C; that for `C=CC(C)(O)C#Cc1ncn2c1CN(C)C(=O)c1c(Cl)cccc1-2` (stereo not given) was 185 to 187 °C.
The value for `COc1ccc2cc(C(C)C(=O)OC/C=C\COC(=O)OC(C)O[N+](=O)[O-])ccc2c1` (stereo not given) was 76 to 78 °C; that for `COC(=O)C1=C(C)NC(C)=C(C(=O)OC)C1c1ccccc1CO` was 218 to 220 °C; that for `O=C(NC1CCS(=O)(=O)CC1)NC12CC3CC(CC(C3)C1)C2` was 244 to 246 °C.
The value for `CCn1cc(CN(C(=O)C2CCCc3c(O)cccc32)c2ccc(C(C)C)cc2)cn1` (stereo not given) was 212 to 215 °C.
In turn, `O=c1c2ccc(Cl)cc2[nH]c2c(O)nn(C3CCCc4ccccc43)c(=O)c12` (racemic) came in with a melting point greater than 300 °C.
The figure for `CC(=O)N1C(=O)C2(COc3cc4c(cc32)OCCO4)c2ccccc21` (stereo not given) is 236 to 238 °C.
The value for `CCCCNC(=O)Nc1ccccc1NC(=O)NCCCC` was 163 to 164 °C; that for `COC(=O)C(CC(=S)c1ccc(C)cc1)C(C)=O` (stereo not given) was 110 to 112 °C.
`CCN(CC)N(C(C)=O)c1nc2c(C)c3nc(N(C(C)=O)N(CC)CC)sc3cc2s1` registered a melting point of 191 to 192 °C.
The figure for `O=C(O)CCCOc1ccc(C2=CCCCCC2)cc1` is 87 to 88 °C; for `CCOCc1cc(N2C(=O)C3=C(CCCC3)C2=O)c(F)cc1Br` it is 104 to 106 °C.
